Assay results from US20130004979A1, “GLYCOSYLTRANSFERASE REVERSIBILITY FOR SUGAR NUCLEOTIDE SYNTHESIS AND MICROSCALE SCANNING” (WISCONSIN ALUMNI RESEARCH FOUNDATION, priority 2010, published 2013).
≈ marks a conversion by molar mass, not a printed value.

How the values were obtained:
[1] = target: T1, OleD variant TDP-16 (Streptomyces antibioticus, UniProt Q53685, A242L/P67T/Q268V/S132F); assay: 2-chloro-4-nitrophenyl glycoside screening for NDP-sugar formation; assay type: biochemical
Description: Aliquots were removed at various time points, mixed with an equal volume of ddH2O, frozen in a bath of dry ice and acetone, and stored at −20° C. Following, samples were thawed at 4° C. and filtered through a MultiScreen Filter Plate (from Millipore, Billerica, Mass., USA) according to manufacturer's instructions. Samples were evaluated for formation of NDPsugar by analytical reverse-phase HPLC with a 250 mm×4.6 mm Gemini-NX 5μ C18 column (from Phenomenex, Torrance, Calif., USA) using a linear gradient of 0% to 50% CH3CN (solvent B) over 25 minutes (solvent A=50 mM PO4^−2, 5 mM tetrabutylammonium bisulfate, 2% acetonitrile [pH adjusted to 6.0 with KOH]; flow rate=1 ml min^−1; A254 nm).

[2] = target: T1, OleD variant TDP-16; assay: NDP screening with 2-chloro-4-nitrophenyl glucoside (9); assay type: biochemical; details: donor 9, TDP-16, NDP as acceptor
Description: Reactions were allowed to proceed for 5 hours, quenched with an equal volume of 40 mM phosphoric acid (adjusted to pH 6.5 with triethylamine) and heated for 30 seconds on a heat block. Following, samples were centrifuged at 10,000 g for 30 min at 0° C. and the supernatant removed for analysis. The clarified reaction mixtures were analyzed by analytical reverse-phase HPLC. HPLC was conducted with a Supelcosil LC18-T (3 μm, 150×4.6 mm) column (from Sigma-Aldrich St. Louis, Mo., USA) with a gradient of 0% B to 100% B over 20 min (A=40 mM phosphoric acid [adjusted to pH 6.5 with triethylamine]; B=10% MeOH in 40 mM phosphoric acid [adjusted to pH 6.5 with triethylamine]; flow rate=0.5 mL min-1) and detection monitored at 254 nm.

[3] = target: T1, OleD variant TDP-16; assay: Single enzyme coupled colorimetric screen of putative aglycon acceptors (410 nm); assay type: biochemical; details: 0.5 mM 9, 0.5 mM acceptor, 5 μM UDP, TDP-16, 410 nm over 480 min
Description: Specifically, each 100 PI reaction in the 96-well plate contained the sugar donor 9 (0.5 mM), a putative aglycon acceptor (0.5 mM), a catalytic amount of UDP (5 3M) and TDP-16 (11 3M) and reaction progress was monitored at 410 nm over 480 min. […] Based upon this cumulative rapid analysis, […] (62-103) led to a positive response (designated as three standard deviations above the mean for control reactions), 37 of which (62-93, 96, 97, 99, 101, 103) were subsequently confirmed by HPLC and/or LC/MS to lead to products consistent with glucoside formation.
Reactions containing 10.5 μM (50 μg) OleD variant TDP-16, 5 μM of UDP, 0.5 mM final acceptor (58 [as a positive control] and 62-111), and 0.5 mM 2-chloro-4-nitrophenyl-β-D-glucoside (9) in Tris-HCl buffer (50 mM, pH 8.5) with a final volume of 100 μl were prepared in a 96 well flat bottom Bacti plate (0.4 mL well^−1; Nagle Nunc International, Rochester, N.Y., USA). Absorbance measurements were recorded every 2 min at 410 nm for 8 hours on a FLUOstar Optima plate reader (BMG, Durham, N.C., USA) with the plate shaken within the reader for 5 seconds before collection of each time point. Reactions containing final acceptor were run at n=1, control reactions lacking final acceptor were run at n=6, and control reactions lacking both final acceptor and UDP were run at n=3. […]

[4] = target: OleD variant P67T/S312F/A242L/Q268V (Streptomyces antibioticus, UniProt Q53685, A242L/P67T/Q268V/S132F); assay: Determination of equilibrium constants of the glucoside donor/UDP reaction; assay type: biochemical; details: with UDP, Tris-HCl 50 mM pH 8.5, 298K, relative to UDP-Glc (33a); calculated from Keq
Description: Equilibrium constants (Keq, pH8.5) were also determined for 1, 2, 4, 7, and 9 and utilized to calculate the corresponding Gibbs free energy according to equation (1).
ΔG°pH8.5=−RT ln(Keq,pH8.5)
Reactions contained 21 μM (200 μg) OleD variant P67T/S312F/A242L/Q268V, 1 mM UDP, and 1 mM β-D-glucopyranoside donor (1, 2, 4, 7, or 9) in Tris-HCl buffer (50 mM, pH 8.5) in a final total volume of 200 μl. Multiple time course evaluations were conducted to determine the time at which each reaction reached equilibrium (<2 min for 7, 9; <90 min for 1, 4; 200 min for 2). Following, each analysis was conducted in triplicate to the minimum observed time point for equilibrium and samples were processed and evaluated as described below to determine concentrations of UDP to 33a (UDP-α-D-glucose). […] Glucoside and aglycon concentrations were inferred from the determined concentrations of UDP and 33a.

[5] = Solubility of donor under kinetic assay conditions; assay type: physicochemical; details: 50 mM Tris-HCl buffer, aqueous buffer; 50 mM Tris-HCl (pH 8.5)
[6] = target: OleD variant (Streptomyces antibioticus, UniProt Q53685, A242L/P67T/Q268V/S132F); assay: β-D-glucoside screening: reverse reaction forming UDP-/TDP-glucose; assay type: biochemical; details: in combination with OleD variant TDP-16
Source text: The availability of a GT capable of utilizing a wide array of both simple aromatic acceptors and sugar nucleotides set the stage for this systematic study. With the aid of a crystal structure (10), previous directed evolution and engineering of an inverting macrolide-inactivating GT from S. antibioticus (OleD) identified several highly permissive variants for both sugar nucleotides (14 known sugar substrates) and acceptors (>70 structurally diverse known substrates) in the context of the forward reaction (11-16). Utilizing the aglycons recognized in forward reactions as a template, a set of 32 putative ü-D-glucopyranosides donors were synthesized and tested against a series of OleD variants in reverse reactions for production of UDP-J-D-glucose (UDP-Glc, 33a) in the presence of UDP (FIG. 14a). The syntheses of these putative donors required 1-3 steps (37% average overall yield) and, in all but one case (19), provided the desired E-anomer exclusively. Of the 32 putative donors evaluated, 9 (1-9) led to UDP-Glc (33a) formation with all variants examined (FIG. 14b).
Reactions containing 2.1 μM (10 μg) of purified OleD variant, 1 mM of UDP or TDP, and 1 mM of β-D-glucopyranoside (1-32) in Tris-HCl (50 mM, pH 8.5) with a final volume of 100 μl were incubated at room temperature for 1 hour. Samples were frozen in a bath of dry ice and acetone and stored at −20° C. […]

T1 sequence (Q53685 other isoform, or with tags, fused parts or gaps P55A/P67T/R82V/R83E/T84P/S132F/A242L/Q268V): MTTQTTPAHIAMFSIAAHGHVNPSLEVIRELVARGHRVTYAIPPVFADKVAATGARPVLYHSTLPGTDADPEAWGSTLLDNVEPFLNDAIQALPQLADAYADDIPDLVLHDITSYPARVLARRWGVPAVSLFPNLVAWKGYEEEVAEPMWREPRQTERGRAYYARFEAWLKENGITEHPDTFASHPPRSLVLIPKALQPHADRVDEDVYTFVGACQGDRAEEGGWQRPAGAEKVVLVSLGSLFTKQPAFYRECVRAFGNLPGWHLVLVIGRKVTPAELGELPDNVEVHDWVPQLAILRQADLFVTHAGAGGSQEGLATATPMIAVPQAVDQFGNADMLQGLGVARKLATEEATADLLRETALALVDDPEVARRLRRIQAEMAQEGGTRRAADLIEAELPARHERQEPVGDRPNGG
OleD variant P67T/S312F/A242L/Q268V, sequence (Q53685 other isoform, or with tags, fused parts or gaps P55A/P67T/R82V/R83E/T84P/S132F/A242L/Q268V): as above
OleD variant, sequence (Q53685 other isoform, or with tags, fused parts or gaps P55A/P67T/R82V/R83E/T84P/S132F/A242L/Q268V): as above

O=[N+]([O-])c1ccc(O[C@H]2OC[C@@H](O)[C@H](O)[C@H]2O)c(Cl)c1 [α-anomer of 38]
turnover as donor substrate (anomer) [1]: no turnover

Nc1nc2c(ncn2[C@@H]2O[C@H](COP(=O)(O)OP(=O)(O)O)[C@@H](O)[C@H]2O)c(=O)[nH]1 [GDP]
NDP-sugar formation efficiency [2]: much lower efficiency

Nc1ncnc2c1ncn2[C@@H]1O[C@H](COP(=O)(O)OP(=O)(O)O)[C@@H](O)[C@H]1O [ADP]
NDP-sugar formation efficiency [2]: much lower efficiency

O=c1c(-c2ccc(O)cc2)coc2cc(O)cc(O)c12 [Compound 62, genistein]
response in colorimetric screen (three standard deviations above the mean for control reactions) [3]: hits

OCC1O[C@@H](Oc2ccccc2Cl)C(O)[C@@H](O)[C@@H]1O (stereo partly drawn) [Compound 4, 2-chlorophenyl-β-D-glucopyranoside]
ΔG°pH8.5 of donor to UDP-Glc transformation [4]: +2.55 kcal mol-1

O=C(O)c1cn(C2CC2)c2cc(N3CCNCC3)c(F)cc2c1=O [Compound 92, ciprofloxacin]
response in colorimetric screen (three standard deviations above the mean for control reactions) [3]: hits

O=[N+]([O-])c1ccc(O[C@@H]2OC(CO)[C@@H](O)[C@H](O)C2O)c(Cl)c1 (stereo partly drawn) [Compound 9, 2-chloro-4-nitrophenyl-β-D-glucopyranoside]
ΔG°pH8.5 of donor to UDP-Glc transformation [4]: −2.78 kcal mol-1 | solubility [5]: ~25 mM (≈ 8390 µg/mL) | overall yields of UDP-Glc (33a) or TDP-Glc (33b) [6]: best overall yields
